# Experimental data as given in patent US7691418B2, “Composition for inhibiting or preventing the formation of a biofilm” (Oystershell NV, priority 2004, dated 2010).
# Legend:
# [1] = system: glycosyltransferase (GTF); dextran sucrase of Leuconostoc mesenteroides; experiment: GTF enzyme assay: insoluble dextran formation followed by turbidity at 690 nm; assay type: biochemical; conditions: positive controls: TRIS 2, 10, 100 mM; DJM 10 mM
# S. mutans biofilm = S. mutans biofilm formation on hydroxyl apatite discs in Modified Robbins Devices, SYTO 9 fluorescence; assay type: cell-based, Streptococcus mutans; conditions: FIG. 12; 5 μg/ml (sub-MIC)
# Source text: A first example illustrates the influence of extracts according to the invention on the development of a S. mutans biofilm. Hereby a model system for the study of biofilm formation on discs was used. The system comprises the irrigation of a growing medium and micro-organisms on discs and to develop the formation of microbial biofilms thereon. The system permits to compare biomasses of biofilms which were and were not exposed to plant extracts according to the invention. Since teeth comprise hydroxyl apatite (HAP), discs comprising HAP (Clarkson Chromatography Products, South Williamsport, Pa., USA) were used for each experiment. […] Before starting biofilm experiments, the minimum inhibitory concentration (MIC value) was determined for each plant extract. […] Quantification of biofilm formation was done by putting the HAP discs in a microtiter plate, followed by staining the discs with a SYTO®9 solution, that stains the DNA of living bacteria as well as of dead bacteria. After an incubation period of approximately 15 minutes the microtiter plate was scanned in an automatic microtiter plate reader (Wallac 1420 Multilabel Counter (Victor^2™; Perkin Elmer Life and Analytical Sciences, Boston, Mass., USA) able to measure absorption as well as fluorescence and luminescence.
absorption of formed dextran with known GTF inhibitors [1],SMILES,average fluorescence values compared with positive control BHIS (S. mutans biofilm)
decrease in absorption,"OC[C@H]1NC[C@H](O)[C@@H](O)[C@@H]1O [DJM, 1-deoxynojirimycine]",–
decrease in absorption,NC(CO)(CO)CO [TRIS],–
–,Cc1cc(O)c2c(c1)C(=O)c1cc(O)cc(O)c1C2=O [emodin],significantly lower that those of the positive control BHIS
